Legend:
[1] = molecular target: NAMPT (human, recombinant, C-terminally His-tagged) (Homo sapiens, UniProt P43490); assay: Time-Resolved Fluorescence Resonance Energy Transfer (TR-FRET) Binding Assay of NAMPT; conditions: 6.8 nM NAMPT, 200 nM probe, equilibrated 3 hours, absence of substrates
Method: Determination of the utility of compounds having Formula (I) as binders to and inhibitors of NAMPT was performed using Time-Resolved Fluorescence Resonance Energy Transfer (TR-FRET) binding assays.
Time-Resolved Fluorescence Resonance Energy Transfer (TR-FRET) Binding Assay of NAMPT
Test compounds were serially diluted (typically 11 half log dilutions) in neat DMSO to 50× final concentrations prior to dilution with assay buffer (50 mM HEPES (NaOH), pH 7.5, 100 mM NaCl, 10 mM MgCl2, 1 mM DTT, 1% Glycerol) to 3× and 6% DMSO. Six μL were transferred to 384-well low-volume plates (Owens Corning #3673). To this, 12 μL of a 1.5× solution containing enzyme, probe and antibody were added. Final concentrations in the 18 μL, reactions were 1× assay buffer, 2% DMSO, 6.8 nM NAMPT (human, recombinant, C-terminally His-tagged), 200 nM probe (a potent nicotinamide-competitive inhibitor conjugated to Oregon Green 488) and 1 nM Tb-anti-His antibody (Invitrogen #PV5895). Reactions were equilibrated at room temperature for 3 hours prior to reading on an Envision multi-label plate reader (Perkin Elmer; Ex=337 nm, Em=520 and 495 nm). Time-resolved FRET ratios (Em520/Em495) were normalized to controls, plotted as a function of compound concentration and fit with the four-parameter logistic equation to determine IC50s.

NAMPT = NAMPT (Homo sapiens, UniProt P43490); assay: Time-Resolved Fluorescence Resonance Energy Transfer (TR-FRET) Binding Assay of NAMPT with PRPP; conditions: 2 nM NAMPT, 2 nM probe, 200 uM PRPP and 2.5 mM ATP, equilibrated 16 hours
NAMPT, sequence (P43490 whole entry): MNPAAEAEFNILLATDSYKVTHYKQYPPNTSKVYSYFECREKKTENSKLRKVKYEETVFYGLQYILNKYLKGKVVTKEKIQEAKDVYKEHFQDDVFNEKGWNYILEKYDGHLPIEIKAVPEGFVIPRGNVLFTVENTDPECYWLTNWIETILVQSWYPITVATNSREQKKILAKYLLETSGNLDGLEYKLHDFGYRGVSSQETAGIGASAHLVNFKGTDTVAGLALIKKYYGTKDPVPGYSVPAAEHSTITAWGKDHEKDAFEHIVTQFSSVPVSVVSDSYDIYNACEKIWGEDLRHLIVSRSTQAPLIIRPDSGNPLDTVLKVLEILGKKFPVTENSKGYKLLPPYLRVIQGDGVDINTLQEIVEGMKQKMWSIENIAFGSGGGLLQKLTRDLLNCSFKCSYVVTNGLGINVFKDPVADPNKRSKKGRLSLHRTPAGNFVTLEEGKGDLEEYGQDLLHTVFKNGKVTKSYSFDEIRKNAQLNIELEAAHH
Method: Time-Resolved Fluorescence Resonance Energy Transfer (TR-FRET) Binding Assay of NAMPT with PRPP
Compound handling and data processing were identical to the assay in the absence of substrates (above). Final concentrations were 1× assay buffer, 2% DMSO, 2 nM NAMPT, 2 nM probe, 1 nM Tb-anti-His antibody (Invitrogen #PV5895), 200 uM PRPP and 2.5 mM ATP. Reactions were equilibrated for 16 hours prior to measurement to allow for potential enzymatic modification of test compounds.

NAMPT (human, recombinant, C-terminally His-tagged), sequence (P43490 whole entry): as above

Row | SMILES | IC50 [1] [nM] | IC50 (NAMPT) [nM]
1 | O=C(Nc1ccc(C2CCN(C(=O)CC3CCCC3)CC2)cc1)[C@H]1CCN(c2cccnc2)C1 [Example 204, (3S)—N-{4-[1-(cyclopentylacetyl)piperidin-4-yl]phenyl}-1-(pyridin-3-yl)pyrrolidine-3-carboxamide] | 380 | 2.76
2 | COCCOCC(=O)N1CCC(Oc2ccc(NC(=O)C3CN(c4cccnc4)C3)cc2)CC1 [Example 48, N-[4-({1-[(2-methoxyethoxy)acetyl]piperidin-4-yl}oxy)phenyl]-1-(pyridin-3-yl)azetidine-3-carboxamide] | 112 | 0.861
3 | CCC(C)C(=O)N1CCC(c2ccc(NC(=O)C3CN(c4cccnn4)C3)cc2)CC1 (centres unmarked) [Example 319, N-{4-[1-(2-methylbutanoyl)piperidin-4-yl]phenyl}-1-(pyridazin-3-yl)azetidine-3-carboxamide] | 24.9 | 0.747
4 | Cc1ncccc1N1CC(C(=O)Nc2ccc(C3CCN(C(=O)c4cc(Cl)cc(Cl)c4)CC3)cc2)C1 [Example 154, N-{4-[1-(3,5-dichlorobenzoyl)piperidin-4-yl]phenyl}-1-(2-methylpyridin-3-yl)azetidine-3-carboxamide] | 524 | 16.1
5 | COc1ccc(C(=O)N2CCC(c3ccc(NC(=O)C4CN(c5cccnn5)C4)cc3)CC2)cc1 [Example 347, N-{4-[1-(4-methoxybenzoyl)piperidin-4-yl]phenyl}-1-(pyridazin-3-yl)azetidine-3-carboxamide] | 66.2 | 0.94
6 | O=C(Nc1ccc(C2CCN(C(=O)CSc3ncccn3)CC2)cc1)C1CN(c2cccnn2)C1 [Example 382, 1-(pyridazin-3-yl)-N-(4-{1-[(pyrimidin-2-ylsulfanyl)acetyl]piperidin-4-yl}phenyl)azetidine-3-carboxamide] | 65.8 | 0.657
7 | CC(C)Cn1cc(-c2ccc(C(=O)NC3CN(c4cccnn4)C3)s2)cn1 [Example 315, 5-[1-(2-methylpropyl)-1H-pyrazol-4-yl]-N-[1-(pyridazin-3-yl)azetidin-3-yl]thiophene-2-carboxamide] | 469 | 0.641
8 | O=C(Nc1ccc(C2CCN(C(=O)C3(c4ccccc4)CC3)CC2)cc1)C1CN(c2cccnn2)C1 [Example 381, N-(4-{1-[(1-phenylcyclopropyl)carbonyl]piperidin-4-yl}phenyl)-1-(pyridazin-3-yl)azetidine-3-carboxamide] | 15.1 | 1.13
9 | CCC(CC)CN1CCC(c2ccc(NC(=O)C3CN(c4cccnc4)C3)cc2)CC1 [Example 92, N-{4-[1-(2-ethylbutyl)piperidin-4-yl]phenyl}-1-(pyridin-3-yl)azetidine-3-carboxamide] | 784 | 0.548
10 | Cc1ncccc1N1CC(C(=O)Nc2ccc(C3CCN(C(=O)C(C)C)CC3)cc2)C1 [Example 29, N-{4-[1-(2-methylpropanoyl)piperidin-4-yl]phenyl}-1-(2-methylpyridin-3-yl)azetidine-3-carboxamide] | 79.8 | 16.7
11 | CCC(C)(C)C(=O)N1CCC(c2ccc(NC(=O)C3CN(c4cccnc4C)C3)cc2)CC1 [Example 193, N-{4-[1-(2,2-dimethylbutanoyl)piperidin-4-yl]phenyl}-1-(2-methylpyridin-3-yl)azetidine-3-carboxamide] | 40.2 | 54
12 | CCCC(=O)N1CCC(c2ccc(NC(=O)C3CN(c4cccnn4)C3)cc2)CC1 [Example 317, N-[4-(1-butanoylpiperidin-4-yl)phenyl]-1-(pyridazin-3-yl)azetidine-3-carboxamide] | 43.9 | 0.991
13 | COCCOCC(=O)N1CCC(c2ccc(NC(=O)C3CN(c4cccnc4C)C3)cc2)CC1 [Example 183, N-(4-{1-[(2-methoxyethoxy)acetyl]piperidin-4-yl}phenyl)-1-(2-methylpyridin-3-yl)azetidine-3-carboxamide] | 1040 | 185
14 | O=C(Nc1ccc(C2CCN(C(=O)c3cccs3)CC2)cc1)C1CN(c2cccnn2)C1 [Example 376, 1-(pyridazin-3-yl)-N-{4-[1-(thiophen-2-ylcarbonyl)piperidin-4-yl]phenyl}azetidine-3-carboxamide] | 3.22 | 0.468
15 | CC(C)C(=O)N1CCC(c2ccc(NC(=O)[C@H]3CCN(c4cccnn4)C3)cc2)CC1 [Example 310, (3S)—N-{4-[1-(2-methylpropanoyl)piperidin-4-yl]phenyl}-1-(pyridazin-3-yl)pyrrolidine-3-carboxamide] | 456 | 5.37
16 | O=C(Nc1ccc(OC2CCN(C(=O)Cc3cccc(C(F)(F)F)c3)CC2)cc1)C1CN(c2cccnn2)C1 [Example 240, 1-(pyridazin-3-yl)-N-{4-[(1-{[3-(trifluoromethyl)phenyl]acetyl}piperidin-4-yl)oxy]phenyl}azetidine-3-carboxamide] | 192 | 0.925
17 | O=C(Nc1ccc(OC2CCN(C(=O)c3ccccc3Cl)CC2)cc1)C1CN(c2ccnnc2)C1 [Example 279, N-(4-{[1-(2-chlorobenzoyl)piperidin-4-yl]oxy}phenyl)-1-(pyridazin-4-yl)azetidine-3-carboxamide] | 20.2 | 15.5
18 | O=C(Nc1ccc(OC2CCN(C(=O)C3CC3)CC2)cc1)C1CN(c2ccnnc2)C1 [Example 301, N-(4-{[1-(cyclopropylcarbonyl)piperidin-4-yl]oxy}phenyl)-1-(pyridazin-4-yl)azetidine-3-carboxamide] | 143 | 48.3
19 | O=C(Nc1ccc(OC2CCN(C(=O)[C@@H]3CCCO3)CC2)cc1)[C@H]1CCN(c2cccnc2)C1 [Example 13, (3S)-1-(pyridin-3-yl)-N-[4-({1-[(2S)-tetrahydrofuran-2-ylcarbonyl]piperidin-4-yl}oxy)phenyl]pyrrolidine-3-carboxamide] | 858 | 2.88
20 | O=C(Nc1ccc(OC2CCN(C(=O)c3ccccc3F)CC2)cc1)C1CN(c2ccnnc2)C1 [Example 289, N-(4-{[1-(2-fluorobenzoyl)piperidin-4-yl]oxy}phenyl)-1-(pyridazin-4-yl)azetidine-3-carboxamide] | 41.6 | 32.1
21 | O=C(Nc1ccc(OC2CCN(C(=O)c3ccsc3)CC2)cc1)C1CN(c2ccnnc2)C1 [Example 278, 1-(pyridazin-4-yl)-N-(4-{[1-(thiophen-3-ylcarbonyl)piperidin-4-yl]oxy}phenyl)azetidine-3-carboxamide] | 75.8 | 33.4
22 | CC(C)(O)C(=O)N1CCC(c2ccc(NC(=O)C3CN(c4cccnc4)C3)cc2)CC1 [Example 20, N-{4-[1-(2-hydroxy-2-methylpropanoyl)piperidin-4-yl]phenyl}-1-(pyridin-3-yl)azetidine-3-carboxamide] | 6.74 | 0.296
23 | O=C(Nc1ccc(C2CCN(C(=O)C3CCCC3)CC2)cc1)C1CN(c2cccnc2)C1 [Example 138, N-{4-[1-(cyclopentylcarbonyl)piperidin-4-yl]phenyl}-1-(pyridin-3-yl)azetidine-3-carboxamide] | 21.8 | 0.445
24 | CCOCC(=O)N1CCC(Oc2ccc(NC(=O)C3CN(c4cccnc4)C3)cc2)CC1 [Example 44, N-(4-{[1-(ethoxyacetyl)piperidin-4-yl]oxy}phenyl)-1-(pyridin-3-yl)azetidine-3-carboxamide] | 138 | 1.01
25 | CCC(C)CC(=O)N1CCC(c2ccc(NC(=O)C3CN(c4cccnc4C)C3)cc2)CC1 (centres unmarked) [Example 160, N-{4-[1-(3-methylpentanoyl)piperidin-4-yl]phenyl}-1-(2-methylpyridin-3-yl)azetidine-3-carboxamide] | 74.5 | 70.8
26 | O=C(Nc1ccc(OC2CCN(C(=O)C3CCOCC3)CC2)cc1)C1CN(c2ccnnc2)C1 [Example 306, 1-(pyridazin-4-yl)-N-(4-{[1-(tetrahydro-2H-pyran-4-ylcarbonyl)piperidin-4-yl]oxy}phenyl)azetidine-3-carboxamide] | 112 | 46.3
27 | C=CCC(=O)N1CCC(c2ccc(NC(=O)C3CN(c4cccnn4)C3)cc2)CC1 [Example 330, N-{4-[1-(but-3-enoyl)piperidin-4-yl]phenyl}-1-(pyridazin-3-yl)azetidine-3-carboxamide] | 31.7 | 0.887
28 | Cc1ncccc1N1CC(C(=O)Nc2ccc(C3CCN(C(=O)CCC(F)(F)F)CC3)cc2)C1 [Example 172, 1-(2-methylpyridin-3-yl)-N-{4-[1-(4,4,4-trifluorobutanoyl)piperidin-4-yl]phenyl}azetidine-3-carboxamide] | 286 | 170

— patent US8975398B2, “NAMPT inhibitors” (AbbVie Inc., priority 2012, dated 2015)
